Experimental data as given in patent publication US20020110801A1, “A Method for screening compounds for the modulation of cognitive function” (priority 1998, published 2002).
Marks after values point to notes of the source that are not given here.

Key:
pure actin = assay: pyrene-actin fluorescence assay of actin filament assembly in vitro; type: biochemical; settings: during assembly or added to pre-formed filaments
Method: Since actin-based motility in dendritic spines depends on the actin polymerization cycle the possible influence of isoflurane on actin filament assembly is tested in vitro using a well-established pyrene-actin fluorescence assay.

rat embryo fibroblasts = assay: TPA-induced membrane ruffling, rhodamine-phalloidin staining of actin; type: cell-based; settings: pretreatment of cells; 100 nM TPA 15 min
Description: The results of these experiments on neurons pose the question of whether volatile anaesthetics act directly on actin in dendritic spines or indirectly through neurotransmitter receptors, which are also influenced by these agents at clinically relevant concentrations, or some other component of central synapses. To choose between these possibilities the influence of volatile anaesthetics on actin-based motility is examined in fibroblastic cells, where neurotransmitter receptors and other elements of the synaptic machinery are absent. […] Resting layers of rat embryo fibroblasts in saline are treated for 15 min with 100 nM TPA which induces membrane ruffling. Cells are fixed and stained with rhodamine-labelled phalloidin to visualize actin enrichment in ruffles at the edges of the cells. […]
For analysis of the actin cytoskeleton in REF52, cells plated on glass coverlips are serum-starved for several hours prior to the experiment. […] Cells are then fixed with 4% paraformaldehyde (Fluka Biochemicals, Buchs, Switzerland) in phosphate-buffered saline with 0.02% Triton X-100 (Fluka Biochemicals, Buchs, Switzerland) and […] rhodamine-labelled phalloidin F(Sigma Chemicals, Buchs, Switzerland) for 10 min at room temperature, rinsed in phosphate-buffered saline and mounted in Vectashield (Vector Laboratories, Burlingame, Calif., USA) for inspection on the fluorescence microscope.

[1] = in phosphate-buffered saline; McKenzie et al. 1995; cited from earlier work
rats = settings: based on minimal alveolar concentration (MAC) in rats; cited from earlier work
[2] = system: actin-based motility in dendritic spines; assay: video time-lapse recording of dendritic spine motility (shape factor) in GFP-actin transfected hippocampal neurons, volatile anaesthetics; type: cell-based, rat; settings: for Effective conc. for spine motility: calculated from concentration of saturated solution at 25° C. used as stock solution; for effect on spine shape change / spine motility in presence of the anaesthetic: clinically relevant concentrations in saline; for spine motility after the anaesthetic is removed: washout
Method: To examine the influence of volatile anaesthetics on spine motility their effects on live, cultured hippocampal neurons that have been transfected with green fluorescent protein-tagged actin (GFP-actin) to render their dendritic spines visible are studied.
The following example further illustrates the employment of an assay according to the invention. First, the shape of a dendritic spine on a rat hippocampal neuron in culture as visualized by GFP-actin enriched in the spine head is recorded about every 5 sec over a period of about 6 min prior to perfusion with isoflurane. Then the cells are slowly perfused with isoflurane at clinically relevant concentrations in saline. This step is followed by an additional time-lapse recording over about 6 min. Then a morphometric analysis of spine shape is done using the integrated morphometry analysis interface in Metamorph 3.0. In particular, the shape factor calculated from the perimeter and the area of the spine illustrates changes in spine shape.
All reagents for cell culturing are obtained either from Life Technologies, Basel, Switzerland, or from Sigma Chemicals/Fluka Biochemicals, Buchs, Switzerland. […] Neurons are plated onto polylysine treated glass coverslips in Eagle's minimal essential medium supplemented with 10% horse serum. After a 4 hr incubation the coverslips are turned over onto confluent layers of primary astroglial feeder layers in chemically defined Eagle's minimal essential medium with N2 supplement. Over a time period of 3-4 weeks, neurons develop large networks of processes and eventually matured to carry synapses on dendritic spines.
(§1) For live imaging, coverslips are mounted in saline in closed observation chambers (Type 1, Life Imaging Services, Olten, Switzerland) and placed at 37° C. on a DM-IRBE inverted fluorescence microscope (Leica, Basel, Switzerland) equipped with high numerical aperture oil lenses and a GFP-optimized filter set (Chroma Technologies, Brattleboro, Vt., USA).
Images are captured using a cooled CCD camera (Princeton Instruments, Trenton, N.J., USA) and MetaMorph Imaging Software version 3.0 (Universal Imaging Corporation, West Chester, Pa., USA). Anaesthetics are diluted from saturated solutions in saline into prewarmed saline immediately prior to slow perfusion into the closed observation chambers at a rate of approx. 0.5 ml/min for a total exchange of 5 ml volume.
For analysis of spine shape over time the integrated morphometric function of MetaMorph 3.0, in particular the shape factor of thresholded objects calculated from their perimeter and their area, is used to log the data for individual images directly to Microsoft Excel 97.

[3] = system: dendritic spine motility in hippocampal neurons expressing GFP-actin; type: cell-based, rat; settings: for effect of NMDA receptor blockade on spine motility: antagonist alone; for influence on the inhibition of motility by AMPA: antagonist present with AMPA
Method: In this example it is shown that dendritic spine motility is inhibited by AMPA. To assess the influence of glutamate receptors on dendritic spine motility video recordings are made during which agonists and antagonists of ionotropic glutamate receptors are transiently applied to hippocampal neurons expressing GFP-actin. For example, such a recording is made from part of the dendrite of a GFP-actin expressing cell in a culture that is exposed to 200 nM AMPA. In initial titration experiments, AMPA is effective at concentrations as low as 50 nM. […] The striking extent of this motility blockade may be illustrated by video data. […] In order to exclude the effect being a consequence of indirect NMDA receptor activation, the experiment may be repeated in presence of the selective NMDA receptor antagonists APV and MK801. Data may be recorded for several spines on a single dendrite segment at high magnification so that the effect of AMPA on individual spines is visible. […] The results for APV are equivalent. Such frames are taken from a longer video recording encompassing a much larger area of this dendrite and several different drug combinations. […]
All reagents for cell culturing are obtained either from Life Technologies, Basel, Switzerland, or from Sigma Chemicals/Fluka Biochemicals, Buchs, Switzerland. Cultures of primary rat hippocampal neurons are established exactly according to Goslin and Banker (Rat hippocampal neurons in low-density culture, in Culturing Nerve Cells (Bradford Book, MIT Press, Cambridge, Mass., 1991) G. Banker and K. Goslin, eds.). Briefly, dissected hippocampi of E19 rat embryos are digested with 0.25% trypsin for 15 min at 37° C. and triturated to yield a single cell suspension using a narrow-bore pasteur pipet. Neurons are plated onto polylysine treated glass coverslips in Eagle's minimal essential medium supplemented with 10% horse serum. After a 4 hr incubation the coverslips are turned over onto confluent layers of primary astroglial feeder layers in chemically defined Eagle's minimal essential medium with N2 supplement. Over a time period of 3-4 weeks, neurons develop large networks of processes and eventually matured to carry synapses on dendritic spines.
as §1, with “USA). […]” for “USA).”
Drugs are either applied by gravity feed perfusion or by removing the chamber lid and adding the test substance. […] The pH is adjusted to 7.2. [NMDA and AMPA receptor activity is influenced by the extracellular concentration of protons (Kashiwagi et al., 1997; Saybasili et al., 1998; Mc Donald et al., 1998)]

[4] = system: distribution of GFP-actin fluorescence in hippocampal neurons; assay: GFP-actin fluorescence intensity in successive video frames; type: cell-based, rat
Description: In this example it is shown that AMPA treatment appears to involve a redistribution of spine actin. A further consistent consequence of treating hippocampal neurons with AMPA is a visible change in the distribution of GFP-actin fluorescence involving an apparent shift toward a concentration in the centre of the spine head. GFP-actin fluorescence intensity may be measured in successive frames of video recordings in which AMPA is transiently present. Measurements are made for a whole dendritic segment and within boxes of the same area placed in the center of spine heads or on the dendritic shaft, respectively. […] This phenomenon could reflect some general aspect of gfp fluorescence in response to an altered ion concentration or pH of the local cytoplasm. Fluorescence excitation of gfp in solution decreases at low pH. Therefore the observed decrease in brightness might be attributed to a lowered pH, mediated by glutamate receptor activation. Application of glutamate or Ca2+ ionophores to rat primary cultured hippocampal neurons is shown to induce a persistent acidosis. To account for this effect, data are normalized for single spines to the overall brightness of the dendrite. The average brightness from the boxes during the recordings for three randomly selected spines may then be evaluated. […] For above mentioned reasons, it is not entirely clear, if the apparent reduction in spine diameter is due to loss of actin fluorescence because of pH shifts or actin concentration in the center of spine heads, but comparison of phase and GFP-actin pictures argue in favour of changes in spine head size. The same caution has to apply to changes in the diameter of the spine neck, which have been postulated to influence synaptic weight by altering the electrical resistance. Those structures are extremely small and for a detailed analysis electronmicroscopic analysis would be favourable.

tadpoles = settings: based on EC50 in tadpoles; read-out: Effective conc. for anesthesia; cited from earlier work

SMILES: FC(F)OC(Cl)C(F)(F)F (stereo not shown) [Isoflurane]
- effect on polymerization state of pure actin (pure actin): no detectable effect
- TPA-induced actin ruffles (rat embryo fibroblasts): prevents TPA-induced actin ruffles
- concentration of saturated solution [1]: 15300 µM
- Effective conc. for anesthesia (rats): 0.31^a mM
- Effective conc. for spine motility [2]: 0.30 mM
- effect on spine shape change / spine motility in presence of the anaesthetic [2]: it remains constant
- spine motility ([2]; dilution of 1:50 of saturated solution): fully inhibited
- spine motility ([2]; dilution of 1:60 of saturated solution): fully motile
- spine motility ([2]; dilution of 1:100 of saturated solution): fully motile
- spine motility after the anaesthetic is removed [2]: recovery of motility

SMILES: C=C(C)[C@H]1CN[C@H](C(=O)O)[C@H]1CC(=O)O [Kainate]
- mimics the effect of AMPA on spine motility [3]: mimicked

SMILES: FC(F)(F)C(Cl)Br (stereo not shown) [Halothane]
- Effective conc. for anesthesia (rats): 0.27^a mM
- Effective conc. for spine motility [2]: 0.23 mM

SMILES: Cc1onc(O)c1CC(N)C(=O)O (stereo not drawn) [AMPA, α-amino-3-hydroxy-5-methylisoxazole-4-propionic acid]
- GFP-actin fluorescence intensity over the whole dendrite ([4]; after application of AMPA): decrease in intensity
- average brightness of the dendritic shaft ([4]; normalized to overall brightness of the dendrite): reduced
- GFP-actin fluorescence intensity in the centre of spine heads ([4]; three randomly selected spines, normalized to overall brightness of the dendrite): marked increase
- dendritic varicosities associated with subsequent cell death ([3]; 50 nM to 200 nM): do not produce dendritic varicosities
- reversibility of effect on spine motility ([3]; 50 nM to 200 nM): reversible
- spine movement ([3]; 200 nM AMPA present): spine movement effectively ceases
- lowest effective concentration on spine motility ([3]; initial titration experiments): 50 nM

SMILES: CCOCC [Diethylether, diethylether]
- EC50 (tadpoles): 25 mM
- concentration of saturated solution [1]: 816000 µM
- Effective conc. for spine motility [2]: 20.4 mM

SMILES: C[C@]12N[C@H](Cc3ccccc31)c1ccccc12 [MK801]
- effect of NMDA receptor blockade on spine motility [3]: does not inhibit spine motility
- influence on the inhibition of motility by AMPA [3]: does not influence

SMILES: FC(F)OC(F)(F)C(F)Cl (stereo not shown) [Enflurane]
- concentration of saturated solution [1]: 11900 µM
- Effective conc. for anesthesia (rats): 0.64^a mM
- Effective conc. for spine motility [2]: 0.30 mM

SMILES: COC(F)(F)C(Cl)Cl [methoxyflurane, Methoxyflurane]
- concentration of saturated solution [1]: 9100 µM

SMILES: Cc1onc(OCC(=O)O)c1CC(N)C(=O)O (stereo not shown) [AMOA, 2-amino-3-[3-(carboxymethoxy)-5-methyl-isoxazol-4-yl]propionic acid]
- block of the effect of AMPA on spine motility ([3]; AMPA receptor antagonist applied with AMPA): entirely blocked

SMILES: N[C@@H](CCCP(=O)(O)O)C(=O)O [APV]
- effect of NMDA receptor blockade on spine motility [3]: equivalent
- influence on the inhibition of motility by AMPA [3]: equivalent

SMILES: ClC(Cl)Cl [Chloroform]
- EC50 (tadpoles): 1.3 mM
- concentration of saturated solution [1]: 66000 µM
- Effective conc. for spine motility [2]: 1.33 mM
- effect on spine shape change / spine motility in presence of the anaesthetic [2]: variation in spine shape is minimal
- spine motility after the anaesthetic is removed [2]: rapid changes in spine shape are resumed
